Some test systems named below: OVCAR-8 ovarian; SNB-19 CNS; HOP-62 NSCLC; U251 CNS; A549 NSCLC; NCI-H226 lung; NCI-H522 lung; HS 578T breast; HT29 colon; SF-295 CNS.
Experiment in all cases: DTP human tumour cell line panel, 48 h

Usually GI50 stands for the concentration at which growth is held to half of that of the control. The term TGI denotes the concentration giving total growth inhibition. Low readings indicate more potent growth arrest, high ones less potent growth arrest.

Each structure is given as a SMILES string. Several values for one entry are separate records, joined by “and”; a condition that tells them apart may be missing. Equal values may be shown once.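 Method: 48-hour compound exposure of cells in 96-well plates, five concentrations, linear interpolation of endpoints. Here, GI50 denotes the concentration required for 50% inhibition of growth. TGI is the concentration that stops growth completely.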

With `C[C@H]1CCC/C=C/[C@@H]2C[C@H](O)C[C@H]2[C@H](O)/C=C/C(=O)O1`, the concentration for 50% growth inhibition (GI50) is 0.043 µM with OVCAR-8 ovarian; 0.0308 µM and 0.134 µM and 0.215 µM in the test on SNB-19 CNS; 0.0216 µM and 0.0722 µM and 0.0915 µM with HOP-62 NSCLC; < 0.0207 µM and 0.0435 µM and 0.0578 µM in the test with A549 NSCLC; 0.044 µM and 0.0952 µM and 0.115 µM in the test with NCI-H522 lung; 0.0224 µM with HT29 colon. Besides, the GI50 in the test on SF-295 CNS is < 0.0181 µM and 0.0524 µM and 0.12 µM. In addition, the total growth inhibition concentration (TGI) is more than 100 µM with SNB-19 CNS; 9.24 µM and 4.21 µM with HOP-62 NSCLC; more than 100 µM in the test with U251 CNS; more than 100 µM with A549 NSCLC; 0.0954 µM and 0.148 µM and 0.0478 µM with NCI-H226 lung; 0.208 µM and 0.213 µM and 0.354 µM in the test with NCI-H522 lung. The compound further gave a TGI in the test with HS 578T breast of more than 100 µM.

For `CN1NC(c2ccccc2)=C(C#N)C(=O)CC1c1ccc(F)cc1` (stereo not drawn), the concentration for total growth inhibition (TGI) in the test with SNB-19 CNS, with U251 CNS, in the test with A549 NSCLC, with NCI-H226 lung, with NCI-H522 lung and in the test on HT29 colon was more than 100 µM throughout. Moreover, the total growth inhibition concentration (TGI) in the test with SF-295 CNS is more than 100 µM.

As to `Cn1c2cn[nH]c(=O)c2c2ccc3ccccc3c21`, the TGI is more than 100 µM in the test with OVCAR-8 ovarian; more than 100 µM with SNB-19 CNS; 31.8 µM with HOP-62 NSCLC; 47.1 µM in the test with U251 CNS; more than 100 µM with A549 NSCLC; more than 100 µM in the test on NCI-H226 lung. Besides, the TGI in the test with NCI-H522 lung is 59.5 µM; in the test with HS 578T breast, 53.1 µM; with HT29 colon, more than 100 µM; with SF-295 CNS, 63.4 µM.

As for `COC(=O)c1ccc2c(c1)sc1nc(-c3ccc(OC)cc3)cn12`, the total growth inhibition concentration (TGI) with OVCAR-8 ovarian, with SNB-19 CNS, with HOP-62 NSCLC, in the test with U251 CNS, in the test with A549 NSCLC and in the test with NCI-H226 lung was more than 100 µM in each case. For the same compound, the TGI in the test on NCI-H522 lung, in the test on HS 578T breast, in the test on HT29 colon and in the test with SF-295 CNS was more than 100 µM each time.

On to `O=C(CSSCC(=O)OCCS(=O)(=O)Nc1ccc(Br)cc1)OCCS(=O)(=O)Nc1ccc(Br)cc1`, for which the TGI is 45.2 µM in the test on OVCAR-8 ovarian; more than 100 µM with SNB-19 CNS; more than 100 µM in the test on U251 CNS; more than 100 µM in the test on A549 NSCLC; 24 µM with NCI-H522 lung; 31.8 µM in the test on HT29 colon. Moreover, the TGI in the test with SF-295 CNS is more than 100 µM.

With `O=S(=O)(O)c1ccc2c(N=Nc3ccccc3)c(O)ccc2c1`, the concentration for total growth inhibition (TGI) in the test with OVCAR-8 ovarian, in the test with SNB-19 CNS, in the test with HOP-62 NSCLC, in the test with U251 CNS, in the test with A549 NSCLC and with NCI-H226 lung was more than 100 µM throughout. In addition, the TGI with NCI-H522 lung, with HS 578T breast, in the test on HT29 colon and in the test on SF-295 CNS was more than 100 µM throughout.

With `Cc1cc2c(cc1Cl)SC(c1ccccc1O)NS2(=O)=O` (stereo not drawn), the TGI in the test on OVCAR-8 ovarian, in the test on SNB-19 CNS, in the test with HOP-62 NSCLC, in the test with U251 CNS, in the test on A549 NSCLC and in the test with NCI-H226 lung was more than 100 µM throughout. The concentration for total growth inhibition (TGI) in the test with NCI-H522 lung, in the test with HS 578T breast, in the test on HT29 colon and in the test with SF-295 CNS was more than 100 µM in each case.

With `CC(C)(C)c1cc(-c2nc3ccc(N4CCN(CCO)CC4)cc3[nH]2)cc(C(C)(C)C)c1O`, the GI50 with OVCAR-8 ovarian is 6.53 µM; with SNB-19 CNS, 3.48 µM; in the test with A549 NSCLC, 3.51 µM; with NCI-H226 lung it was 21.5 µM; in the test on HS 578T breast, 1.73 µM. For the same compound, the TGI in the test on OVCAR-8 ovarian is more than 100 µM; in the test on SNB-19 CNS, more than 100 µM; with A549 NSCLC, more than 100 µM; in the test with NCI-H226 lung, more than 100 µM; in the test with HS 578T breast, 4.68 µM.

As for `Cc1cn(Cc2cn(CC3OC(n4cc(C)c(=O)[nH]c4=O)CC3O)nn2)c(=O)[nH]c1=O` (stereo not drawn), the TGI in the test on OVCAR-8 ovarian, with SNB-19 CNS, in the test with HOP-62 NSCLC, with U251 CNS, in the test on A549 NSCLC and with NCI-H226 lung was more than 100 µM throughout. Also, the TGI in the test with HS 578T breast and in the test with SF-295 CNS was more than 100 µM in each case.

Take `O=c1c(-c2ccccc2)c(SCCN2CCOCC2)n(-c2ccccc2)c(=S)n1-c1ccccc1`: the TGI in the test with OVCAR-8 ovarian, with HOP-62 NSCLC, in the test on U251 CNS, in the test with NCI-H226 lung, in the test with NCI-H522 lung and in the test with HS 578T breast was more than 100 µM in each case. In the test on SF-295 CNS, this compound yielded a total growth inhibition concentration (TGI) of more than 100 µM.

As for `COc1cccc(NC(=O)CC(=O)NN2C(=O)/C(=C/c3ccc(N(CCC#N)CCC#N)cc3)N=C2c2cc([N+](=O)[O-])ccc2Cl)c1`, the TGI in the test with OVCAR-8 ovarian was more than 100 µM; in the test on SNB-19 CNS, more than 100 µM; with HOP-62 NSCLC it was more than 100 µM; with U251 CNS, more than 100 µM; in the test with A549 NSCLC, more than 100 µM; with NCI-H226 lung, 30.1 µM. Besides, the total growth inhibition concentration (TGI) with NCI-H522 lung and in the test on SF-295 CNS was more than 100 µM throughout.

On to `C=C1CC2C3C=C(C)C4=CC(=O)CC[C@]4(C)C3CC[C@]2(C)[C@@]1(OC(C)=O)C(C)=O` (stereo partly drawn), for which the GI50 is more than 100 µM in the test on SNB-19 CNS; 7.76 µM in the test on HOP-62 NSCLC; 2.63 µM with A549 NSCLC; 4.21 µM in the test on NCI-H522 lung; 43.5 µM in the test on HS 578T breast. For the same compound, the TGI in the test with SNB-19 CNS, in the test on HOP-62 NSCLC, in the test on A549 NSCLC, in the test on NCI-H522 lung and in the test with HS 578T breast was more than 100 µM in each case.

With `CCOC(=O)/C(=C\NC(C)(C)CO)c1nc2ccccc2[nH]1`, the TGI with OVCAR-8 ovarian was more than 100 µM; in the test with SNB-19 CNS, more than 100 µM; in the test on HOP-62 NSCLC it was more than 100 µM; in the test with A549 NSCLC it was more than 100 µM; with NCI-H522 lung, more than 100 µM; in the test with HS 578T breast it was 97.7 µM. Also, the TGI in the test with HT29 colon and in the test with SF-295 CNS was more than 100 µM throughout.

As for `Cc1ccc(C(=O)Nc2ncn(C3CC(O)C(CO)O3)c(=O)n2)cc1` (stereo not drawn), the total growth inhibition concentration (TGI) in the test on OVCAR-8 ovarian, in the test with SNB-19 CNS, in the test with HOP-62 NSCLC, in the test with U251 CNS, with A549 NSCLC and with NCI-H226 lung was more than 100 µM in each case. For the same compound, the concentration for total growth inhibition (TGI) in the test on NCI-H522 lung, with HT29 colon and with SF-295 CNS was more than 100 µM in each case.

The values are drawn from PubChem BioAssay (NCI).
